Patent US6545170B2, “2-amino-5, 6 heptenoic acid derivatives useful as nitric oxide synthase inhibitors” (Pharmacia Corporation, priority 2000, dated 2003)
pIC50: −log10 of the molar value. Where a name gives a salt, the structure may show the parent alone.

Experiments:
[1] = tested on: inducible nitric oxide synthase activity (plasma nitrite/nitrate levels); test: In vivo assay: LPS-induced increase in plasma nitrite/nitrate; settings: Rattus norvegicus; rats, endotoxin (LPS) i.p., oral administration, 5 hours post-treatment; read-out: ED50, inhibition of LPS-induced increase in plasma nitrite/nitrate levels
Description: Plasma nitrite/nitrate levels can be determined 5 hours post-treatment.

[2] = biological target: T1, human endothelial constitutive NOS (hecNOS) (Homo sapiens, UniProt P29474); test: Citrulline assay for nitric oxide synthase, hecNOS; type: biochemical; settings: recombinant enzyme, 30 μM L-arginine, calmodulin 40-100 nM
T1 construct: made in house; host or cells: Sf9 insect cells (baculovirus vector)
Source text: (§1) Nitric oxide synthase (NOS) activity can be measured by monitoring the conversion of L-[2,3-^3H]-arginine to L-[2,3-^3H]-citrulline (Bredt and Snyder, Proc. Natl. Acad. Sci. U.S.A., 87, 682-685, 1990 and Moore et al, J. Med. Chem., 39, 669-672, 1996). Human inducible NOS (hiNOS), human endothelial constitutive NOS (hecNOS) and human neuronal constitutive NOS (hncNOS) are each cloned from RNA extracted from human tissue. The cDNA for human inducible NOS (hiNOS) is isolated from a λcDNA library made from RNA extracted from a colon sample from a patient with ulcerative colitis. The cDNA for human endothelial constitutive NOS (hecNOS) is isolated from a λcDNA library made from RNA extracted from human umbilical vein endothelial cells (HUVEC) and the cDNA for human neuronal constitutive NOS (hncNOS) is isolated from a λcDNA library made from RNA extracted from human cerebellum obtained from a cadaver. The recombinant enzymes are expressed in Sf9 insect cells using a baculovirus vector (Rodi et al, in The Biology of Nitric Oxide, Pt. 4: Enzymology. Biochemistry and Immunology; Moncada, S., Feelisch, M., Busse, R., Higgs, E., Eds.; Portland Press Ltd.: London, 1995; pp 447-450). Enzyme activity is isolated from soluble cell extracts and partially purified by DEAE-Sepharose chromatography. To measure NOS activity, 10 μL of enzyme is added to 40 μL of 50 mM Tris (pH 7.6) in the presence or absence of test compounds and the reaction initiated by the addition of 50 μL of a reaction mixture containing 50 mM Tris (pH 7.6), 2.0 mg/mL bovine serum albumin, 2.0 mM DTT, 4.0 mM CaCl2, 20 μM FAD, 100 μM tetrahydrobiopterin, 0.4 mM NADPH and 60 μM L-arginine containing 0.9 μCi of L-[2,3-^3H]-arginine. The final concentration of L-arginine in the assay is 30 μM. For hecNOS or hncNOS, calmodulin is included at a final concentration of 40-100 nM. […] After mixing the resin is allowed to settle and L-[2,3-^3H]-Citrulline formation is determined by counting aliquots of the supernatant with a liquid scintillation counter. […]

[3] = biological target: T2, Human inducible NOS (hiNOS) (Homo sapiens, UniProt P35228); test: Citrulline assay for nitric oxide synthase, hiNOS; type: biochemical; settings: recombinant enzyme, 30 μM L-arginine, 37° C. 15 minutes
T2 construct: made in house; host or cells: Sf9 insect cells (baculovirus vector)
Source text: as §1

[4] = biological target: T3, human neuronal constitutive NOS (hncNOS) (Homo sapiens, UniProt P29475); test: Citrulline assay for nitric oxide synthase, hncNOS; type: biochemical; settings: recombinant enzyme, 30 μM L-arginine, calmodulin 40-100 nM
T3 construct: made in house; host or cells: Sf9 insect cells (baculovirus vector)
Source text: as §1

Row | Compound | ED50 [1] | pIC50 [2] | pIC50 [3] | pIC50 [4]
1 | CC(=N)NC/C(C)=C\CC[C@H](N)C(=O)O [Example 1, (2S,5Z)-2-amino-6-methyl-7-[(1-iminoethyl)amino]-5-heptenoic acid, dihydrochloride] | < 0.1 mg/kg |  |  | 
2 | CC(=N)NC/C(C)=C/CC[C@H](N)C(=O)O [Example 2, (2S,5E)-2-amino-6-methyl-7-[(1-iminoethyl)amino]-5-heptenoic acid, dihydrochloride] |  | 2.83 | 3.76 | 3.28
3 | CC(=N)NC/C=C\CC[C@H](N)C(=O)O [Example 6, (2S,5Z)-2-amino-7-[(1-iminoethyl)amino]-5-heptenoic acid, dihydrochloride] |  | 4.05 | 6.05 | 5.10
4 | CC(=N)NC/C=C/CC[C@H](N)C(=O)O [Example 8, (2S,5E)-2-amino-7-[(1-iminoethyl)amino]-5-heptenoic acid, dihydrochloride] |  | 3.38 | 4.70 | 3.82
